# Laboratory results published in PubChem BioAssay AID248 (DTP/NCI, 2004).
# Inconclusive results and toxic doses are left out.
# Test system: L1210 leukemia ip in BDF1 mice, survival T/C
# Assay: NCI In Vivo Anticancer Drug Screen. Data for tumor model L1210 Leukemia (intraperitoneal) in B6D2F1 (BDF1) mice
# Conditions: endpoint: mean survival time, higher = longer survival
# Method in brief: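 Read-out is survival time, reported as the treated-group measurement over the vehicle-control measurement.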
# [1] = dose: 50.0 mg/kg/injection, schedule: Q01DX009 (ip), vehicle: saline
# [2] = dose: 100.0 mg/kg/injection, schedule: Q01DX009 (ip), vehicle: saline
# [3] = dose: 100.0 mg/kg/injection, schedule: Q04DX003 (ip), vehicle: saline
# [4] = dose: 200.0 mg/kg/injection, schedule: Q01DX009 (ip), vehicle: saline
# [5] = dose: 200.0 mg/kg/injection, schedule: Q04DX003 (ip), vehicle: saline
# [6] = dose: 400.0 mg/kg/injection, schedule: Q04DX003 (ip), vehicle: saline
# [7] = dose: 100.0 mg/kg/injection, schedule: Q01DX001 (ip), vehicle: saline
# [8] = dose: 200.0 mg/kg/injection, schedule: Q01DX001 (ip), vehicle: saline
# [9] = dose: 400.0 mg/kg/injection, schedule: Q01DX001 (ip), vehicle: saline
# [10] = dose: 100.0 mg/kg/injection, schedule: Q01DX009 (ip), vehicle: Klucel (hydroxypropylcellulose) (HPC)
# [11] = dose: 100.0 mg/kg/injection, schedule: Q04DX002 (ip), vehicle: Klucel (hydroxypropylcellulose) (HPC)
# [12] = dose: 200.0 mg/kg/injection, schedule: Q01DX009 (ip), vehicle: Klucel (hydroxypropylcellulose) (HPC)
# [13] = dose: 200.0 mg/kg/injection, schedule: Q04DX002 (ip), vehicle: Klucel (hydroxypropylcellulose) (HPC)
# [14] = dose: 400.0 mg/kg/injection, schedule: Q04DX002 (ip), vehicle: Klucel (hydroxypropylcellulose) (HPC)
# [15] = dose: 100.0 mg/kg/injection, schedule: Q04DX003 (ip), vehicle: Klucel (hydroxypropylcellulose) (HPC)
# [16] = dose: 50.0 mg/kg/injection, schedule: Q04DX003 (ip), vehicle: saline
# [17] = dose: 25.0 mg/kg/injection, schedule: Q01DX009 (ip), vehicle: saline
smiles,measurement,setting,value
CN(C)CCCNC(=O)C1C(c2ccccc2)C1c1ccccc1 (stereo not given),T/C,"dose: 12.5 mg/kg/injection, schedule: Q04DX002 (ip), vehicle: saline with Tween-80",102 % of control
same,T/C,"dose: 25.0 mg/kg/injection, schedule: Q04DX002 (ip), vehicle: saline with Tween-80",102 % of control
same,T/C,"dose: 50.0 mg/kg/injection, schedule: Q04DX002 (ip), vehicle: saline with Tween-80",91 % of control
c1cc[c]([Sb]([S]c2ncnc3nc[nH]c23)[c]2ccccc2)cc1,T/C,"dose: 5.0 mg/kg/injection, schedule: Q01DX001 (ip), vehicle: other",97 % of control
same,T/C,"dose: 10.0 mg/kg/injection, schedule: Q01DX001 (ip), vehicle: other",116 % of control
Nc1nnn(CCO)n1,T/C,"dose: 100.0 mg/kg/injection, schedule: Q04DX003 (ip), vehicle: saline sonified",105 % of control
same,T/C,"dose: 200.0 mg/kg/injection, schedule: Q04DX003 (ip), vehicle: saline sonified",102 % of control
same,T/C,"dose: 400.0 mg/kg/injection, schedule: Q04DX003 (ip), vehicle: saline sonified",96 % of control
NC(CCC(=O)NC(=O)OCc1ccccc1)C(=O)O (stereo not given),T/C,"dose: 100.0 mg/kg/injection, schedule: Q01DX009 (ip), vehicle: saline with Tween-80",102 % of control
same,T/C,"dose: 200.0 mg/kg/injection, schedule: Q01DX009 (ip), vehicle: saline with Tween-80",100 % of control
same,T/C,"dose: 400.0 mg/kg/injection, schedule: Q01DX009 (ip), vehicle: saline with Tween-80",97 % of control
CCN(CC)Cc1cc(Nc2cc(C)nc(Nc3ccc(Cl)c(Cl)c3)n2)ccc1OC,T/C,"dose: 12.5 mg/kg/injection, schedule: Q01DX009 (ip), vehicle: saline with Tween-80",98 % of control
same,T/C,"dose: 12.5 mg/kg/injection, schedule: Q04DX003 (ip), vehicle: saline with Tween-80",98 % of control
same,T/C,"dose: 25.0 mg/kg/injection, schedule: Q01DX009 (ip), vehicle: saline with Tween-80",105 % of control
same,T/C,"dose: 25.0 mg/kg/injection, schedule: Q04DX003 (ip), vehicle: saline with Tween-80",100 % of control
same,T/C,"dose: 50.0 mg/kg/injection, schedule: Q01DX009 (ip), vehicle: saline with Tween-80",110 % of control
same,T/C,"dose: 50.0 mg/kg/injection, schedule: Q04DX003 (ip), vehicle: saline with Tween-80",101 % of control
NCCNCCNCCN1CC1,T/C,"dose: 10.0 mg/kg/injection, schedule: Q04DX002 (ip), vehicle: saline",97 % of control
same,T/C,"dose: 20.0 mg/kg/injection, schedule: Q04DX002 (ip), vehicle: saline",97 % of control
CC1C(C(=O)c2ccc(-c3ccccc3)cc2)N1c1ccccc1 (stereo not given),T/C,"dose: 100.0 mg/kg/injection, schedule: Q01DX001 (ip), vehicle: Klucel (hydroxypropylcellulose) (HPC)",94 % of control
same,T/C,"dose: 400.0 mg/kg/injection, schedule: Q01DX001 (ip), vehicle: Klucel (hydroxypropylcellulose) (HPC)",94 % of control
N#CCCSP(=S)(Oc1ccccc1)Oc1ccccc1,T/C,"dose: 100.0 mg/kg/injection, schedule: Q01DX009 (ip), vehicle: other",100 % of control
same,T/C,"dose: 200.0 mg/kg/injection, schedule: Q01DX009 (ip), vehicle: other",100 % of control
same,T/C,"dose: 400.0 mg/kg/injection, schedule: Q01DX009 (ip), vehicle: other",94 % of control
CCOC(=O)Cc1cc(Cl)c2ccc(Cl)cc2n1,T/C,[1],96 % of control
same,T/C,[2],95 % of control
same,T/C,[3],101 % of control
same,T/C,[4],90 % of control
same,T/C,[5],95 % of control
same,T/C,[6],92 % of control
CCSC1OC(C(COC(C)=O)OC(C)=O)C(OC(C)=O)C1NC(C)=O (stereo not given),T/C,"dose: 50.0 mg/kg/injection, schedule: Q01DX001 (ip), vehicle: saline",103 % of control
same,T/C,[7],110 % of control
same,T/C,[8],97 % of control
same,T/C,[9],100 % of control
CC(C)OC(=O)Oc1c(Cl)c(Cl)c(Cl)c(Cl)c1Cl,T/C,[10],95 % of control
same,T/C,[11],105 % of control
same,T/C,[12],98 % of control
same,T/C,[13],94 % of control
same,T/C,[14],98 % of control
Nc1cc(C(=O)O)c2ccccc2c1,T/C,[7],89 % of control
same,T/C,[8],106 % of control
same,T/C,[9],95 % of control
COc1ccc(CNC(=O)NCCCl)cc1OC,T/C,[10],102 % of control
same,T/C,[15],115 % of control
same,T/C,[12],103 % of control
same,T/C,"dose: 200.0 mg/kg/injection, schedule: Q04DX003 (ip), vehicle: Klucel (hydroxypropylcellulose) (HPC)",113 % of control
same,T/C,"dose: 400.0 mg/kg/injection, schedule: Q04DX003 (ip), vehicle: Klucel (hydroxypropylcellulose) (HPC)",101 % of control
O=C(O)CCC(=O)Oc1ccccc1,T/C,"dose: 100.0 mg/kg/injection, schedule: Q04DX003 (ip), vehicle: other",92 % of control
same,T/C,"dose: 200.0 mg/kg/injection, schedule: Q04DX003 (ip), vehicle: other",106 % of control
CCN1CCC2CN(C)CCN2C1=S (stereo not given),T/C,"dose: 25.0 mg/kg/injection, schedule: Q04DX003 (ip), vehicle: saline",98 % of control
same,T/C,[16],105 % of control
same,T/C,[7],92 % of control
same,T/C,[3],94 % of control
CN(Cc1cnc2nc(N)nc(N)c2n1)c1ccc(C(=O)NC(CCC(=O)OC(C)(C)C)C(=O)OC(C)(C)C)cc1 (stereo not given),T/C,"dose: 25.0 mg/kg/injection, schedule: Q01DX009 (ip), vehicle: Klucel (hydroxypropylcellulose) (HPC)",124 % of control
same,T/C,"dose: 50.0 mg/kg/injection, schedule: Q01DX009 (ip), vehicle: Klucel (hydroxypropylcellulose) (HPC)",88 % of control
same,T/C,[15],159 % of control
Cc1cc([N+](=O)[O-])ccc1S(=O)(=O)F,T/C,"dose: 100.0 mg/kg/injection, schedule: Q04DX003 (ip), vehicle: saline with Tween-80",100 % of control
Nc1cc(C(=O)Nc2ccc(C3=NCCCN3)cc2)ccc1C(=O)Nc1ccc(C2=NCCCN2)cc1,T/C,"dose: 7.5 mg/kg/injection, schedule: Q01DX Z (oral), vehicle: saline",97 % of control
same,T/C,"dose: 15.0 mg/kg/injection, schedule: Q01DX Z (ip), vehicle: saline",93 % of control
same,T/C,"dose: 15.0 mg/kg/injection, schedule: Q01DX Z (oral), vehicle: saline",96 % of control
same,T/C,"dose: 30.0 mg/kg/injection, schedule: Q01DX Z (oral), vehicle: saline",97 % of control
same,T/C,"dose: 60.0 mg/kg/injection, schedule: Q01DX Z (oral), vehicle: saline",103 % of control
CC12CCC3C(CCC4CC5SC5CC43C)C1CCC2O (stereo not given),T/C,[11],108 % of control
same,T/C,[13],111 % of control
same,T/C,[14],101 % of control
CC(O)C#CC#CC(C)O (stereo not given),T/C,"dose: 12.5 mg/kg/injection, schedule: Q01DX009 (ip), vehicle: saline",103 % of control
same,T/C,"dose: 12.5 mg/kg/injection, schedule: Q04DX002 (ip), vehicle: saline",113 % of control
same,T/C,[17],109 % of control
same,T/C,"dose: 25.0 mg/kg/injection, schedule: Q04DX002 (ip), vehicle: saline",109 % of control
same,T/C,[1],101 % of control
same,T/C,"dose: 50.0 mg/kg/injection, schedule: Q04DX002 (ip), vehicle: saline",94 % of control
CCOP(=O)(CC(=O)OC)OCC,T/C,[16],102 % of control
same,T/C,[2],103 % of control
same,T/C,[3],100 % of control
same,T/C,[4],101 % of control
same,T/C,[5],102 % of control
same,T/C,"dose: 400.0 mg/kg/injection, schedule: Q01DX009 (ip), vehicle: saline",88 % of control
same,T/C,[6],102 % of control
CC1(C)OC(=O)C2CCCCC21 (stereo not given),T/C,[17],89 % of control
same,T/C,[1],93 % of control
same,T/C,[7],97 % of control
same,T/C,[8],90 % of control
C#CC(O)c1ccccc1 (stereo not given),T/C,"dose: 12.5 mg/kg/injection, schedule: Q04DX003 (ip), vehicle: Klucel (hydroxypropylcellulose) (HPC)",94 % of control
same,T/C,"dose: 25.0 mg/kg/injection, schedule: Q04DX003 (ip), vehicle: Klucel (hydroxypropylcellulose) (HPC)",99 % of control
same,T/C,"dose: 50.0 mg/kg/injection, schedule: Q04DX003 (ip), vehicle: Klucel (hydroxypropylcellulose) (HPC)",101 % of control
N#CC(c1ccccc1)C(C/C(=N\O)c1ccccc1)c1ccccc1 (stereo not given),T/C,[11],111 % of control
same,T/C,[13],100 % of control
same,T/C,[14],96 % of control
CCCCN=C=S,T/C,"dose: 100.0 mg/kg/injection, schedule: Q04DX002 (ip), vehicle: saline with Tween-80",104 % of control
same,T/C,"dose: 200.0 mg/kg/injection, schedule: Q04DX002 (ip), vehicle: saline with Tween-80",91 % of control
